Values quoted from earlier work, collected in US9155707B2, “Core-shell microspheres” (Agency for Science, Technology and Research, priority 2011, dated 2015).

Columns and labels:
[1] = reference line in FIG. 10

| solubility in water | SMILES | toxic limit of drug permissible in the blood plasma [1] |
| --- | --- | --- |
| – | CCCCN1CCCCC1C(=O)Nc1c(C)cccc1C (stereo not drawn) [Bupivacaine, bupivacaine] | 4000 ng/mL |
| not in water | O=c1[nH]cc(F)c(=O)[nH]1 [Fluorouracil (5-FU), Fluorouracil] | – |
| not very soluble in water | O=S1(=O)OC(c2ccc(O)c(Cl)c2)(c2ccc(O)c(Cl)c2)c2ccccc21 [chlorophenol red (CR), chlorophenol red] | – |
